*1 amine or outer side, *2 acyl side, *3 side chain or, on linkers, in order; H or OH if unused. Where a SMILES comes first, the peptide text is derived from it. Bridges are numbered along the chain shown (N, C = ends). The star is where a group is joined. C20 diacid = O=C(O)CCCCCCCCCCCCCCCCCCC(=O)*; γGlu = O=C(O)[C@H](CCC(=O)[*:2])N[*:1]; AEEA = NCCOCCOCC(=O)O
Tests used:
[1] = target: T1, Amylin 3(a) receptor (human calcitonin receptor (CTa) and RAMP-3) (Homo sapiens, UniProt O60896+P30988); test: Luciferase assay (III), BHK Amylin 3(a)//CRE-luc cells; assay type: cell-based; conditions: BHK cells with Amylin 3(a) receptor and CRE luciferase reporter, 4 hours incubation; read-out: Potency Luciferase
T1 construct: expressed in transfected cells; host or cells: BHK570 cells, stably transfected with a CRE-luciferase reporter
T1 sequence (O60896 24-148): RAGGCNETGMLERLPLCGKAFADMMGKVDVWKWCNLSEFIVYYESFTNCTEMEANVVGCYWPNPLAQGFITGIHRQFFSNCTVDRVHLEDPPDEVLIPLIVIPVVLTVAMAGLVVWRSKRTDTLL
T1 sequence (P30988 25-474): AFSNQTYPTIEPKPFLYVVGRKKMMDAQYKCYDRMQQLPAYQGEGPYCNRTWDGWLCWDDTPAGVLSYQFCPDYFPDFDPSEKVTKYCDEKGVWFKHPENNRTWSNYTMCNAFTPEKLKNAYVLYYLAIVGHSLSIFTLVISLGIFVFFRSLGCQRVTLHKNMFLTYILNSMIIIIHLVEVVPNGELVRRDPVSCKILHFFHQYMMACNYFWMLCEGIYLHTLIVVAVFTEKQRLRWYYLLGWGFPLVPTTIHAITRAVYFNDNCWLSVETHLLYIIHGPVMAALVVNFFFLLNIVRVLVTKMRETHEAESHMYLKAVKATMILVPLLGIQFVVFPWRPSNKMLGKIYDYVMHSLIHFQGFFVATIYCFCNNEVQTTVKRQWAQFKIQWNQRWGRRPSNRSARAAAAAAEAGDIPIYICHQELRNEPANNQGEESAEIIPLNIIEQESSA
Summary of the method: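 Read-out is CRE-driven luciferase luminescence, taken 30 min after LucLite addition at room temperature. Compounds were incubated 4 h at 37° C in assay medium (10% FBS, 10 mM Hepes, pH 7,4). The cell line is BHK570 co-transfected with human calcitonin receptor CTa and RAMP-3, seeded overnight before use.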

[2] = Assay (V) PK - determination of T½ in mini-pig; assay type: in vivo; conditions: minipig, sc; terminal plasma half-life, subcutaneous, approx 2 nmol/kg, male Göttingen mini-pigs
Experimental: Assay (V) PK—Determination OF T½ in Mini-Pig
T½ is the terminal half-life=ln 2/λz of a compound in plasma. λz is the first order rate constant associated with the terminal (log-linear) portion of the plasma concentration-time curve and is estimated by linear regression of time vs. log concentration.
T½ values of the amylin analogues of the invention is determined by pharmacokinetic studies in male Göttingen mini-pigs from Ellegaard Göttingen Minipigs ApS and the principles of laboratory animal care are followed.
An acclimatization period of approximately 6-10 days was allowed before the animals entered the study. At start of the acclimatization period the mini-pigs were about 5 to 12 months old and in the weight range of 7-35 kg. The mini-pigs had two central venous catheters inserted which were used for blood sampling.
The studies were conducted in an animal room which was illuminated to give a cycle of approx 12 hours light and 12 hours darkness. The animals were housed individually.
The animals had free access to domestic quality drinking water during the study, but were typically fasted from overnight before dosing until approx 6-12 hours after dosing. The animals were weighed on arrival and on the days of dosing.
In the present studies the test substances were administered subcutaneously in approx 2 nmol/kg dose. The animals received a single subcutaneous injection. The subcutaneous injection was given on the right side of the neck, approximately 5-7 cm from the ear and 7-9 cm from the middle of the neck. The injections were given with a stopper on the needle, allowing approx 0.5 cm of the needle to be introduced. Each test substance was given to typically three but in some cases two or four animals.
A full plasma concentration-time profile, employing 12-16 sampling points, was obtained from each animal. In example blood samples were collected according to the following schedule:
After subcutaneous administration:
Predose (0), 0.5, 1, 2, 4, 6, 8, 12, 24, 48, 72, 96, 120, 168 and 240 hours after injection. In some cases also additional blood samples up to 288 hours post injection were taken.
At each sampling time, 0.5 to 2 ml of blood was drawn from each animal. The blood samples were taken via the central venous catheter.
The blood samples were collected into EDTA test tubes (i.e. Sarstedt Micro tube 1.3 mL K3E). Blood samples were kept on ice for max 20 min. before centrifugation. Plasma was separated using centrifugation (i.e. at 4° C., 10 min., 1500 G) and was immediately transferred to Micronic tubes. Approximately 200 μl plasma was transferred to each Micronic tube. The plasma was stored at −20° C. until assayed. The plasma samples were assayed for the content of amylin using an ELISA assay.
The plasma concentration-time profiles were analysed by a non-compartmental pharmacokinetic analysis (NCA) using WinNonlin Professional 5.0 (Pharsight Inc., Mountain View, Calif., USA). NCA was performed using the individual plasma concentration-time profiles from each animal. T½ is the terminal half-life=ln 2/λz and was determined from λz, the first order rate constant associated with the terminal (log-linear) portion of the curve, estimated by linear regression of time vs. log concentration.
ELISA Plasma Assay for Amylin Quantification
The human amylin ELISA is a monoclonal antibody-based sandwich immunoassay for determining amylin levels in human plasma. The capture antibody recognizes human amylin, amylin acid (deamidated amylin), a 1-20 fragment of amylin, but not reduced amylin.
The detection antibody binds to reduced or unreduced human amylin but not amylin acid and is complexed with streptavidin-alkaline phosphatase. The substrate, 4-methylumbelliferyl phosphate, is applied to the completed sandwich and the fluorescent signal, monitored at 355 nm/460 nm, is proportional to the amount of amylin present in the sample.

| EC50 [1] [pM] | half-life [2] [h] | SMILES |
| --- | --- | --- |
| 90 | 31 | CC[C@H](C)[C@H](NC(=O)[C@@H]1CCCN1C(=O)CNC(=O)[C@H](Cc1ccccc1)NC(=O)[C@H](CC(N)=O)NC(=O)[C@H](CC(N)=O)NC(=O)[C@H](CO)NC(=O)[C@H](CO)NC(=O)[C@H](Cc1c[nH]cn1)NC(=O)[C@H](Cc1c[nH]cn1)NC(=O)[C@H](CC(C)C)NC(=O)[C@H](Cc1ccccc1)NC(=O)[C@H](CC(N)=O)NC(=O)[C@H](C)NC(=O)[C@H](CC(C)C)NC(=O)[C@H](CCCNC(=N)N)NC(=O)[C@H](CCC(N)=O)NC(=O)[C@@H](NC(=O)[C@H](C)NC(=O)[C@@H]1CSSC[C@H](NC(=O)[C@H](CCCNC(=N)N)NC(=O)[C@H](Cc2c[nH]cn2)NC(=O)[C@H](Cc2c[nH]cn2)NC(=O)COCCOCCNC(=O)CC[C@H](NC(=O)CCCCCCCCCCCCCCCCCCC(=O)O)C(=O)O)C(=O)N[C@@H](CC(N)=O)C(=O)N[C@@H]([C@@H](C)O)C(=O)N[C@@H](C)C(=O)N[C@@H]([C@@H](C)O)C(=O)N1)[C@@H](C)O)C(=O)N[C@@H](CC(C)C)C(=O)N1CCC[C@H]1C(=O)N1CCC[C@H]1C(=O)N[C@H](C(=O)N[C@@H](CC(N)=O)C(=O)N[C@H](C(=O)NCC(=O)N[C@@H](CO)C(=O)N[C@@H](CC(N)=O)C(=O)N[C@H](C(=O)N[C@@H](Cc1ccc(O)cc1)C(N)=O)[C@@H](C)O)C(C)C)[C@@H](C)O [Example 56, N-alpha-[2-(2-{2-[4-(S)-Carboxy-4-(19-carboxynonadecanoylamino)butyrylamino]ethoxy}ethoxy)acetyl]-His-His-[Arg1,His17]-pramlintide] ({C20 diacid-γGlu-AEEA}-HHRCNTATCATQRLANFLHHSSNNFGPILPPTNVGSNTY-NH2; disulfide 4-9) |
| 60 | – | CC[C@H](C)[C@H](NC(=O)[C@@H]1CCCN1C(=O)CNC(=O)[C@H](Cc1ccccc1)NC(=O)[C@H](CC(N)=O)NC(=O)[C@H](CC(N)=O)NC(=O)[C@H](CO)NC(=O)[C@H](CO)NC(=O)[C@H](Cc1c[nH]cn1)NC(=O)[C@H](Cc1c[nH]cn1)NC(=O)[C@H](CC(C)C)NC(=O)[C@H](Cc1ccccc1)NC(=O)[C@H](CC(N)=O)NC(=O)[C@H](C)NC(=O)[C@H](CC(C)C)NC(=O)[C@H](CCCNC(=N)N)NC(=O)[C@H](CCC(N)=O)NC(=O)[C@@H](NC(=O)[C@H](C)NC(=O)[C@@H]1CSSC[C@H](NC(=O)[C@H](CCCCN)NC(=O)[C@H](CCCNC(=N)N)NC(=O)[C@H](CCCCN)NC(=O)[C@H](CCC(=O)O)NC(=O)CCCCCCCCCCCCCCCCCCC(=O)O)C(=O)N[C@@H](CC(N)=O)C(=O)N[C@@H]([C@@H](C)O)C(=O)N[C@@H](C)C(=O)N[C@@H]([C@@H](C)O)C(=O)N1)[C@@H](C)O)C(=O)N[C@@H](CC(C)C)C(=O)N1CCC[C@H]1C(=O)N1CCC[C@H]1C(=O)N[C@H](C(=O)N[C@@H](CC(N)=O)C(=O)N[C@H](C(=O)NCC(=O)N[C@@H](CO)C(=O)N[C@@H](CC(N)=O)C(=O)N[C@H](C(=O)N[C@@H](Cc1ccc(O)cc1)C(N)=O)[C@@H](C)O)C(C)C)[C@@H](C)O [Example 9, N-alpha-[19-carboxynonadecanoyl]-Glu-Lys-Arg-[His17]-pramlintide] ({C20 diacid}-EKRKCNTATCATQRLANFLHHSSNNFGPILPPTNVGSNTY-NH2; disulfide 5-10) |
| 200 | – | CC[C@H](C)[C@H](NC(=O)[C@@H]1CCCN1C(=O)CNC(=O)[C@H](Cc1ccccc1)NC(=O)[C@H](CC(N)=O)NC(=O)[C@H](CC(N)=O)NC(=O)[C@H](CO)NC(=O)[C@H](CO)NC(=O)[C@H](Cc1c[nH]cn1)NC(=O)[C@H](CCCNC(=N)N)NC(=O)[C@H](CC(C)C)NC(=O)[C@H](Cc1ccccc1)NC(=O)[C@H](CC(N)=O)NC(=O)[C@H](C)NC(=O)[C@H](CC(C)C)NC(=O)[C@H](CCCNC(=N)N)NC(=O)[C@H](CCC(N)=O)NC(=O)[C@@H](NC(=O)[C@H](C)NC(=O)[C@@H]1CSSC[C@H](NC(=O)[C@H](Cc2c[nH]cn2)NC(=O)[C@H](Cc2c[nH]cn2)NC(=O)COCCOCCNC(=O)CC[C@H](NC(=O)CCCCCCCCCCCCCCCCCCC(=O)O)C(=O)O)C(=O)N[C@@H](CC(N)=O)C(=O)N[C@@H]([C@@H](C)O)C(=O)N[C@@H](C)C(=O)N[C@@H]([C@@H](C)O)C(=O)N1)[C@@H](C)O)C(=O)N[C@@H](CC(C)C)C(=O)N1CCC[C@H]1C(=O)N1CCC[C@H]1C(=O)N[C@H](C(=O)N[C@@H](CC(N)=O)C(=O)N[C@H](C(=O)NCC(=O)N[C@@H](CO)C(=O)N[C@@H](CC(N)=O)C(=O)N[C@H](C(=O)N[C@@H](Cc1ccc(O)cc1)C(N)=O)[C@@H](C)O)C(C)C)[C@@H](C)O [Example 34, N-alpha-[2-(2-{2-[4-(S)-Carboxy-4-(19-carboxynonadecanoylamino)butyrylamino]ethoxy}ethoxy)acetyl]-His-[His1,Arg17]-pramlintide] ({C20 diacid-γGlu-AEEA}-HHCNTATCATQRLANFLRHSSNNFGPILPPTNVGSNTY-NH2; disulfide 3-8) |
| 100 | – | CC[C@H](C)[C@H](NC(=O)[C@@H]1CCCN1C(=O)CNC(=O)[C@H](Cc1ccccc1)NC(=O)[C@H](CC(N)=O)NC(=O)[C@H](CCC(N)=O)NC(=O)[C@H](CO)NC(=O)[C@H](CO)NC(=O)[C@H](Cc1c[nH]cn1)NC(=O)[C@H](Cc1c[nH]cn1)NC(=O)[C@H](CC(C)C)NC(=O)[C@H](Cc1ccccc1)NC(=O)[C@H](CC(N)=O)NC(=O)[C@H](C)NC(=O)[C@H](CC(C)C)NC(=O)[C@H](CCCNC(=N)N)NC(=O)[C@H](CCC(N)=O)NC(=O)[C@@H](NC(=O)[C@H](C)NC(=O)[C@@H]1CSSC[C@H](NC(=O)[C@H](CCCNC(=N)N)NC(=O)[C@H](Cc2c[nH]cn2)NC(=O)[C@H](Cc2c[nH]cn2)NC(=O)[C@H](CCC(=O)O)NC(=O)CC[C@H](NC(=O)CCCCCCCCCCCCCCCCCCC(=O)O)C(=O)O)C(=O)N[C@@H](CC(N)=O)C(=O)N[C@@H]([C@@H](C)O)C(=O)N[C@@H](C)C(=O)N[C@@H]([C@@H](C)O)C(=O)N1)[C@@H](C)O)C(=O)N[C@@H](CC(C)C)C(=O)N1CCC[C@H]1C(=O)N1CCC[C@H]1C(=O)N[C@H](C(=O)N[C@@H](CC(N)=O)C(=O)N[C@H](C(=O)NCC(=O)N[C@@H](CO)C(=O)N[C@@H](CC(N)=O)C(=O)N[C@H](C(=O)N[C@@H](Cc1ccc(O)cc1)C(N)=O)[C@@H](C)O)C(C)C)[C@@H](C)O [Example 63, N-alpha-[(S)-4-Carboxy-4-(19-carboxynonadecanoylamino)butyryl]-GluHis-His-[Arg1,His17,Gln21]-pramlintide] ({C20 diacid-γGlu}-EHHRCNTATCATQRLANFLHHSSQNFGPILPPTNVGSNTY-NH2; disulfide 5-10) |

Reference: patent publication US8895504B2, “Amylin derivatives” (priority 2008, dated 2014)
